Source: article PMC12040169 (PLOS Biology, 2025)

Test: in vitro
Details: human, hela cells, % viability

Compound | viability at 28.5 h, 10 µM [%]
CC1(C)CC(=NNC(=O)CCc2cc(C(C)(C)C)c(O)c(C(C)(C)C)c2)CC(C)(C)N1 [CBK261952] | 108
O=[N+]([O-])c1ccc(Oc2cccc3cccnc23)c(F)c1 [CBK002750] | 60.4
FC(F)(F)c1cccc(Oc2nnnn2-c2ccccc2)c1 [CBK002798] | 92.6
O=C(c1ccccn1)C1CCCN(c2nccc(CCC(F)(F)F)n2)C1 (stereo not shown) [CBK306775] | 109
CS(=O)(=O)Nc1ccc2cc(-c3ccsc3)cnc2n1 [CBK085665] | 102
CCN(CC)CCN1C(=O)C(O)=C(C(=O)c2ccc(Cl)cc2)C1c1cccc(Br)c1 (stereo not shown) [CBK265165] | 112
Cc1ccc(NC(=O)c2nccc3ccccc23)c(C)n1 [CBK200294] | 93.2
CC(=O)Nc1ccc(Nc2cc(C)nc(-n3nc(C)cc3C)n2)cc1 [CBK287746] | 103
Cc1cc(C(=O)NCCc2ccc(S(N)(=O)=O)cc2)ccc1[N+](=O)[O-] [CBK264390] | 105
O=C(NCCCN1CCCC(O)C1)N1CCCN(Cc2cccs2)CC1 (stereo not shown) [CBK307116] | 82
CN1CCCN(Cc2cccc3ccccc23)CC1 [CBK261531] | 96.4
O=C(CCc1ccno1)NC(Cc1ccsc1)c1cccnc1 (stereo not shown) [CBK285395] | 97.3
O=C(O)c1cccc(NS(=O)(=O)c2ccccc2)c1 [CBK155710] | 79.7
Cc1cc(S(=O)(=O)NCC(=O)O)ccc1F [CBK266632] | 112
CC(=O)Cn1c(CN2CCOCC2)nc2c1c(=O)n(C)c(=O)n2C [CBK269508] | 97.5
C=CCOc1ccc(C(=O)C2=C(O)C(=O)N(Cc3cccnc3)C2c2ccc(Cl)cc2)c(C)c1 (stereo not shown) [CBK264716] | 99.6
CC(C)(C)C(=O)N1CCC(c2nnc3n2CCCCC3)CC1 [CBK285311] | 88.7
Cc1cc(S(=O)(=O)Nc2ccccc2-c2nnnn2C(C)C)c(C)o1 [CBK306259] | 111
O=S(=O)(c1cc(Cl)ccc1Cl)N1CCSC1 [CBK097980] | 99.4
O=C(CSc1nnc(-c2ccc(Cl)cc2Cl)o1)c1cc2ccccc2oc1=O [CBK268698] | 88.7
CC(=O)Nc1ccc(-c2ccc(C(=O)N3CCC(Sc4ccccc4)CC3)cn2)cc1 [CBK160188] | 99.6
CCN1C(=O)CC2(C1=O)C(=O)N(CCc1cccs1)c1ccc(Cl)cc12 (stereo not shown) [CBK075614] | 106

Compound | viability at 28.5 h, 10 µM [%]
CCOC(=O)c1cccc(-c2cc3ccccc3o2)n1 [CBK149243] | 114
Cc1ccc([N+](=O)[O-])cc1NC(=O)c1cc(S(=O)(=O)N(C)C)c(Cl)cc1Cl [CBK266764] | 105
COc1ccc([C@]23CN(C)C[C@H]2CCN(C(=O)c2ccc4c(c2)OC(F)(F)O4)C3)cc1OC [CBK075110T] | 94.8
C=C(C)Cn1c(SCC(C)C)nnc1-c1ccccc1C(=O)O [CBK200093] | 90.1
Cc1c(C(C)NC(=O)C2C3CCC(O3)C2C(=O)O)cnn1C (stereo not shown) [CBK286887] | 91.4
O=S(=O)(Nc1cc(NC2CCNC2)c2occc2c1)c1ccccc1 (stereo not shown) [CBK066943C] | 104
c1ccc(COc2ccccc2-c2cc(N3CCN(c4ccccn4)CC3)ncn2)cc1 [CBK037793] | 97.4
O=c1c(-c2ccco2)[n+]([O-])c2ccccc2n1OCc1ccccn1 [CBK266570] | 91.8
COc1ccccc1-c1nccnc1N[C@H](C)c1ccccc1 [CBK038083] | 107
CC(=O)N(C)c1nc(-c2cccc(N(C)C)c2)ccc1C(=O)N(C)C [CBK076555] | 92.3
N=C1OC2CSCC2N1C(=O)Cc1ccccc1Cl (stereo not shown) [CBK284516] | 106
O=C(N[C@H]1C[C@H]2C(=O)Nc3ccccc3C(=O)N2C1)c1ccccc1 [CBK289354] | 103
COc1ccc(C(=O)[C@@H]2CCCC[C@H]2N)cc1 [CBK023040C] | 91.6
O=C(CSc1ncccc1C(=O)O)c1ccccc1 [CBK273178] | 94.1
CN1CCCC(Cc2cc(-c3ccccc3)no2)(C(=O)N(C)C)C1 (stereo not shown) [CBK281674] | 102
Cc1cc(C)n(CC(=O)Nc2nc(CN3CCC(C)CC3)cs2)n1 [CBK305592] | 101
C[N+]1(c2ccccc2)CCC(N)=N1 (stereo not shown) [CBK262213I] | 91.8
Cc1ccc2cc(C(=O)N3CCCCC3CN3CCOCC3)[nH]c2c1 (stereo not shown) [CBK304374] | 90.4
OCCn1ncc2c(NCc3cccnc3-n3cccn3)ncnc21 [CBK305977] | 90.6
CC1CCN(CCN2CCn3c2nc2ccccc23)CC1 [CBK265467B] | 80
CCOC(CCNC(=O)c1cnc(Nc2ccccc2OC)c2ccccc12)OCC [CBK291184] | 68.3
O=C(O)CCCC(=O)N1CCN(C(=O)c2sc3cc(Cl)ccc3c2Cl)CC1 [CBK286973] | 91

Compound | viability at 28.5 h, 10 µM [%]
COc1cc(NC(=O)N2CCN(c3cc(C(F)(F)F)ccn3)CC2)cc(OC)c1OC [CBK162349] | 95.2
COc1ccccc1C1(NC(=O)Cn2nc(C)cc2C)CCCC1 [CBK283573] | 101
O=c1oc(-c2cccc(F)c2)nc2ccc(Cc3ccc4nc(-c5cccc(F)c5)oc(=O)c4c3)cc12 [CBK262856] | 120
CC(=O)N1CCN(C(=O)C[C@@H]2C[C@@H](C(C)C)[C@H](CC#N)C=C2C)CC1 [CBK289214] | 103
C=CCN1C(=O)CC2(C1=O)C(=O)N(Cc1csc(-c3ccccc3)n1)c1ccc(Cl)cc12 (stereo not shown) [CBK075445] | 99.6
Cc1[nH]c(=O)[nH]c(=S)c1C(=O)Nc1ccc2c(c1)OCO2 [CBK115519] | 100
CCCN1CCC(NCC(C)(C)CN(C)C)CC1 [CBK261934] | 89.3
CCOc1c(CNCc2ccccn2)cccc1OC [CBK268104C] | 96.9
CS(=O)(=O)c1cc(Br)cc(C(=O)NCCNc2cnccn2)c1F [CBK305731] | 85.8
O=C(OCc1ccccc1)N1CCN(C(=O)c2cc3cc(Br)ccc3[nH]2)CC1 [CBK154991] | 97.5
NC(=O)c1ccc(NC(=O)CSc2nnc(-c3ccncc3)n2-c2ccc(Br)cc2)cc1 [CBK266202] | 103
O=S(=O)(CCN1CCC2(CC1)CN(CCO)c1ccccc12)c1ccccc1 [CBK126758] | 102
CC[C@@H](Cn1ncc2ccccc2c1=O)NC(=O)CC1c2ccccc2Oc2ccccc21 [CBK286174] | 89.5
COc1cc(C(=O)N2CCC3(CC2)CC(=O)c2cc(C)ccc2O3)cc(OC)c1C [CBK167805] | 99.6
COc1ccc(C2(C(=O)NCc3cnc(C)cn3)CC2)cc1 [CBK149830] | 98.5
CSc1ccc(CN2CCN(S(=O)(=O)Cc3ccccc3)CC2)cc1 [CBK264301G] | 94.2
Cc1nccnc1N1CCC2(CCCN(CC3CCC3)C2=O)C1 (stereo not shown) [CBK306806] | 103
Cc1cc(OCC(=O)Nc2nn(Cc3ccccc3Cl)cc2Cl)ccc1[N+](=O)[O-] [CBK268113] | 100
C=CCn1c(C)c(C)n2c3c(=O)n(CCN4CCOCC4)c(=O)n(C)c3nc12 [CBK269778] | 90.8
Cc1nc(-c2ccccc2)sc1CNC(=O)Cc1ccccc1F [CBK092372] | 104
COc1cc(NC(=O)NCc2cncn2CC(C)C)c2ncccc2c1 [CBK307182] | 52.1
CC1CCc2c(sc(NC(=S)NC(=O)c3cc4ccccc4o3)c2C#N)C1 (stereo not shown) [CBK266319] | 101

Compound | viability at 28.5 h, 10 µM [%]
CCN(Cc1ccncc1)C(=O)Nc1ccc2[nH]ccc2c1 [CBK155136] | 99.5
Cc1n[nH]c(-c2ccc(OCc3cnn(-c4ccccc4)c3)cc2O)c1Oc1ccc(F)cc1 [CBK264461] | 116
O=C(O)CCCCN1C(=O)c2ccccc2S1(=O)=O [CBK287189] | 84.8
COc1ccccc1N1CCN(C(=O)Nc2ccc(Cl)cc2)CC1 [CBK155597] | 94.5
CC(O)C(=O)NS(=O)(=O)c1ccccc1 (stereo not shown) [CBK038300] | 104
Cc1csc(C(Cc2cccs2)NC(=O)C2CCC(=O)N2)n1 (stereo not shown) [CBK285056] | 104
CC(=O)c1c(C)oc(C)c1C(C)=O [CBK012535] | 88.2
COc1cc(/C=N/c2ccc3oc(-c4ccc(C(C)(C)C)cc4)nc3c2)ccc1OC(=O)c1ccc(Cl)cc1Cl [CBK261238] | 104
S=C(NCC1CCCCC1)Nc1ncc(Cl)cc1Cl [CBK067053] | 91
COc1ccc(-c2c(C)nc(N)nc2-c2ccc(OC)cc2O)cc1 [CBK288186] | 85.7
CCCCNC(=S)N[C@H]1CC[C@@]2(Cc3ccc(OC)cc3)CCN(C)[C@H]2C1 [CBK004258] | 108
COc1ccc([C@H]2CN(C(=O)c3ccccn3)[C@@H]3CCCN(C(C)=O)[C@H]23)cc1 [CBK285523] | 91.4
N#Cc1ccc(Cn2nc(NC(=O)c3ccco3)c3ccccc32)cc1 [CBK048260] | 91.8
CC(C)NC(=O)Cn1cnc2c1c(=O)n(C)c(=O)n2C [CBK133257] | 86.9
COC[C@@H]1OC[C@@]2(C)C3CC[C@@H](O)[C@@H](CC(=O)NCc4ccccc4)[C@]3(C)CC[C@H]2O1 (stereo partly shown) [CBK289574] | 79.1
O=C(OCC=C=CSc1ccc([N+](=O)[O-])cc1)c1ccc(F)cc1 [CBK265650] | 117
Cc1cc(C)n(-c2ccc3nnc(CCCC(=O)O)n3n2)n1 [CBK307630] | 87.1
COC(=O)c1ccc2c(c1)C(=O)N(c1ccc(C(=O)OCC(C)C)cc1)C2=O [CBK156802] | 92.1
CCOC(=O)CCNC(=O)/C=C/c1ccc(C(C)C)cc1 [CBK149643] | 102
CCCCOc1ccc(S(=O)(=O)Nc2ccc(-c3cn4ccccc4n3)cc2)cc1 [CBK264374] | 88.9
Cc1cnc(C)c(N2CCN(c3cc([C@H]4C[C@@H](N)C4)ncn3)CC2)n1 [CBK307118] | 88.7
COc1ccccc1N1CCN(CCC(=O)Nc2ccccc2F)CC1 [CBK264313] | 106
